Columns and labels:
[1] = system: OVA+ EO771 cells; test: H-2Kb presentation on OVA+ EO771 cells (flow cytometry, confocal); assay type: cell-based, mouse; conditions: for H-2Kb antigen presentation (confocal images): 1 μM, 48 h, FIG. 4E; for H-2Kb levels on EO771 cells (MFI): flow cytometry
Method: (§1) Flow Cytometry: Sample acquisition was done using LSR Fortessa X-20 or LSR Fortessa (BD Biosciences) and data were analyzed using FlowJo v10.6.0 software. Live/dead cells were assessed using SYTOX Blue (Invitrogen, Dilution 1:100). For cell staining involving cell permeabilization, the BD cytofix/cytoperm fixation permeabilization kit (BD Biosciences) was used. The PBS buffer containing 0.5% BSA and 10% FBS were used to dilute antibodies. The antibodies used in flow cytometrical analyses include: […] The compensation was performed using CompBeads for negative control (BD Biosciences), anti-mouse Ig,κ (BD Biosciences), anti-rat Ig,κ and anti-hamster Ig,κ (BD Biosciences). The beads were stained with the corresponding antibodies separately under the same conditions as the cells were stained in each experiment. SYTOX Blue reagent was used to stain dead cells. Half of the live cells were incubated at 60° C. for 2 min to enable membrane permeable and then mixed with the other half incubated at 37° C. The mixed cells were stained with SYTOX Blue for 15 mins and used for compensation. For all the data analysis, doublet exclusion was performed and only single cells were analyzed. Dead cell populations were also excluded from analysis if the experiment were not involved in cell killing. One million events per sample were collected for immune profiling analysis in the animal experiments. For all in vitro experiments, at least ten thousand events per sample were collected for flow cytometry analysis. Confocal Microscopy: OVA+ EO771 and NY-ESO-1+ MDA-MB-468 cells were seeded at 5×10^3 cell/well in the 8-well slide (Millicell EZ slide, […]) and treated with 1 μM drug (GSK-LSD1, CUDC-101 or BML-210) for 48 h. FITC-conjugated anti-mouse H-2Kb antibody (Biolegend, dilution 1:50) and FITC-conjugated anti-HLA-A2 (Biolegend, dilution 1:50) were used to stain OVA+ EO771 and NY-ESO-1+ MDA-MB-468 cells, respectively, for 2 h. For cell nucleus staining, cells were incubated with 0.5% Triton X-100/PBS for 10 min and stained with DAPI (Sigma-Aldrich, dilution 1:100) for 15 min. The slides were rinsed in PBS twice and mounted with ProLong Gold anti-fade mountant (Invitrogen, P36930). Fluorescence images were captured using Leica TCS SP8 (upright high speed multiphoton) confocal imaging system. 3-D images were analyzed by the Imaris x64 8.1.2 software.

[2] = system: EO771 (Luc+OVA+) tumor organoids; test: EO771 tumor organoid and OVA-specific CD8+ T cell co-culture cytotoxicity; assay type: cell-based, mouse; conditions: for outcome of combined 2D co-culture, tumor organoid co-culture and antigen presentation screens: 1 μM, 48 h treatment; for organoid dissociation / tumor cell death rates: co-culture with T cells
From the text: In accordance with the present disclosure a drug screen platform was used to identify epigenetic inhibitors that increase a cancer cell's sensitivity to CD8+ T-cell cytotoxicity. In one embodiment the drug screen platform is composed of breast tumor organoids and tumor-specific CD8+ T cells. A lentiviral vector expressing OVA was transduced to the Luc+EO771 cells. The resulting OVA+ cells were orthotopically transplanted to C57BL/6 mice to generate syngeneic mammary tumors. The tumors were harvested and dissociated to single cells for 2D culture and only the adherent cells were collected to generate tumor organoids. 2 ml of tumor organoid culture medium (2×10^5 cells per ml) were seeded into 6-well culture plate with ultra-low attachment surface. After 7-day culture, tumor organoids were filtered by cell strainers with nylon mesh between 70 and 150 μm. The tumor organoids with diameter between 70 and 150 μm were treated with drugs for 48 h in the matrigel-free medium. The treated tumor organoids were then co-cultured with the pre-activated and OVA-specific CD8+ T cells from OT-I mice in the breast organoid culture medium containing 10 ng ml-1 IL2 without matrigel for 24 h. The luciferase released from the EO771 cells was measured using a Dual-luciferase report assay system (Promega) on a BioTek Cytation5 imaging reader, to assess the T cell-mediated cytotoxicity effect.
Cytotoxicity of CD8+ T cells in the co-culture with tumor organoids We generated mouse EO771 (Luc+OVA+) cell line that presents OVA257-264 antigen (from chicken ovalbumin) and human MDA-MB-468 (NY-ESO-1+) cell line that presents NY-ESO-1 antigen for use in the T cell-mediated cytotoxicity assay. OVA-specific CD8+ T cells were isolated from the spleen of OT-I mouse that contains transgenic inserts of Tcra-V2 and Tcrb-V5 genes. The transgenic T cell receptor can recognize the ovalbumin peptide SIINFEKL (OVA257-264; SEQ ID NO: 55). Anti-NY-ESO-1 human CD8^+ T cells (CELLERO™) were used to recognize the NY-ESO-1+ MDA-MB-468 cells. Autologous human CD8+ T cells were isolated from patient tumor tissues and amplified in the DMEM/F12 medium supplemented with 10% FBS, 2 mM Ultraglutamine I, 1% penicillin/streptomycin and 10 ng mL-1 of human IL2 for 7 days. The CD8+ T cells were stimulated by the T-activator CD3/CD28 Dynabeads (Gibco, 11452D for mouse and 11131D for human) for 48 h prior to use for cytotoxicity assay. Mouse and human tumor organoids with diameter between 70 and 150 μm were collected and mixed with corresponding CD8+ T cells in DMEM/F12 medium supplemented with 10% FBS, 2 mM Ultraglutamine I, 1% penicillin/streptomycin and 10 ng mL-1 IL2 (Biolegend, mouse: 575402; human: 589102) at a ratio of organoids versus T cells at 1:200 in the microplates with ultra-low attachment surface. The cells were co-cultured for 24 h and subject to further analyses, such as optical and fluorescence imaging, luciferase assay or flow cytometry.
Epigenetic inhibitor screen on CD8+ T cell-mediated cytotoxicity: The epigenetic inhibitor library (Cayman chemical, Cat #11071, Batch #0522205, data not shown) was used for drug screen. Three different screen methods were conducted. In tumor organoid-T cell co-culture, EO771 (Luc+OVA+) tumor organoids with diameter between 70 and 150 μm were seeded with 100 organoids/well and treated with 1 μM of drug for 48 h. The tumor organoids were centrifuged at 100 rcf for 5 min. The medium were replaced with fresh T cell culture medium containing OVA-specific T cells. A total of 20,000 T cells were added in each well. After co-culture for 24 h, cytotoxicity of tumor cells was measured using a Dual-luciferase report 1000 assay system (Promega) in which luciferase expressed exclusively in the live EO771 (Luc+OVA+) cells was detected by a BioTek Cytation5 imaging reader. Low levels of luciferase from survived tumor cells refer to high cytotoxicity in the co-culture. […]

[3] = system: NY-ESO-1+ MDA-MB-468 cells; test: HLA presentation on NY-ESO-1+ MDA-MB-468 cells (flow cytometry, confocal); assay type: cell-based, human; conditions: for HLA-A2 antigen presentation (confocal images): 1 μM, 48 h, FIG. 4F; for HLA levels on MDA-MB-468 cells (MFI): flow cytometry
Method: as §1

Row | SMILES | H-2Kb antigen presentation (confocal images) [1] | H-2Kb levels on EO771 cells (MFI) [1] | outcome of combined 2D co-culture, tumor organoid co-culture and antigen presentation screens [2] | organoid dissociation [2] | tumor cell death rates [2] | promotion of T cell-mediated cytotoxicity after knockdown of B2M ([2]; shB2M OVA+ EO771 cells, FIG. 4G) | HLA-A2 antigen presentation (confocal images) [3] | HLA levels on MDA-MB-468 cells (MFI) [3]
1 | Nc1ccccc1NC(=O)CCCCCCC(=O)Nc1ccccc1 [BML-210] | boosted up the antigen presentation | much higher levels | increase the antigenicity of tumor cells and enhance their response to cytotoxic T cells | greater organoid dissociation | higher tumor cell death rates | completely abolished | boosted up the antigen presentation | much higher levels
2 | C#Cc1cccc(Nc2ncnc3cc(OC)c(OCCCCCCC(=O)NO)cc23)c1 [CUDC-101] | boosted up the antigen presentation | increased | increase the antigenicity of tumor cells and enhance their response to cytotoxic T cells | greater organoid dissociation | higher tumor cell death rates | – | boosted up the antigen presentation | increased
3 | c1ccc([C@@H]2C[C@H]2NC2CCNCC2)cc1 [GSK-LSD1] | boosted up the antigen presentation | increased | increase the antigenicity of tumor cells and enhance their response to cytotoxic T cells | greater organoid dissociation | higher tumor cell death rates | – | boosted up the antigen presentation | increased

From patent publication US20240299321A1, “METHODS TO SENSITIZE CANCER CELLS AND STANDARDIZED SCREENING ASSAY FOR IMMUNOTHERAPY” (THE TRUSTEES OF INDIANA UNIVERSITY, priority 2020, published 2024)
